Test [1] concerns PC-12. The test is described as follows: Neuroprotective activity against H2O2-induced cell damage in rat PC-12 cells assessed as decrease in cell death at 10 uM pretreated for 12 hrs followed by H2O2 challenge by MTT assay. It is filed as functional, cell-based. Background: Tetrazolium dyes change colour on reduction, which living cells bring about.
Test [2] deals with PC-12. The test is described as follows: Protection against H2O2-induced mitochondrial dysfunction in rat PC-12 cells assessed as change in mitochondrial membrane potential at 2.5 uM pretreated with compound for 12 hrs followed by H2O2 challenge by JC-1 staining based flow cytometry (reference value: 73 %). The format is functional. For orientation: Flow cytometry measures light scatter and fluorescence of single cells or particles in a stream.

Test [3] deals with PC-12. The test is described as follows: Protection against H2O2-induced mitochondrial dysfunction in rat PC-12 cells assessed as change in mitochondrial membrane potential at 5 uM pretreated with compound for 12 hrs followed by H2O2 challenge by JC-1 staining based flow cytometry (reference value: 73 %). It is filed as functional.
Test [4] deals with PC-12. The test is described as follows: Protection against H2O2-induced mitochondrial dysfunction in rat PC-12 cells assessed as change in mitochondrial membrane potential at 10 uM pretreated with compound for 12 hrs followed by H2O2 challenge by JC-1 staining based flow cytometry (reference value: 73 %). The format is functional.
Test [5] relates to PC-12. Kind of test: Protection against 6-OHDA-induced mitochondrial dysfunction in rat PC-12 cells assessed as change in mitochondrial membrane potential at 2.5 uM pretreated with compound for 12 hrs followed by 6-OHDA challenge by JC-1 staining based flow cytometry (reference value: 56 %). The format is functional.
Test [6] concerns PC-12. The test is described as follows: Protection against 6-OHDA-induced mitochondrial dysfunction in rat PC-12 cells assessed as change in mitochondrial membrane potential at 5 uM pretreated with compound for 12 hrs followed by 6-OHDA challenge by JC-1 staining based flow cytometry (reference value: 56 %). It is filed as functional.
The subject of test [7] is PC-12. The test is described as follows: Protection against H2O2-induced apoptosis in rat PC-12 cells assessed as viable cells at 5 uM pretreated for 12 hrs followed by H2O2 challenge by annexin V FITC/propidium iodide staining based flow cytometry (reference value: 73.3 %). The conditions noted are these: read-out: Activity. It is filed as functional.
The test system of test [8] is PC-12. The test is described as follows: Protection against 6-OHDA-induced apoptosis in rat PC-12 cells assessed as viable cells at 2.5 uM pretreated for 12 hrs followed by 6-OHDA challenge by annexin V FITC/propidium iodide staining based flow cytometry (reference value: 76.7 %). It is filed as functional. The conditions noted are these: read-out: Activity.
For test [9], the system named is PC-12. Kind of test: Protection against 6-OHDA-induced apoptosis in rat PC-12 cells assessed as necrotic cells at 2.5 uM pretreated for 12 hrs followed by 6-OHDA challenge by annexin V FITC/propidium iodide staining based flow cytometry (reference value: 3.7 %). The format is functional.
Test [10] concerns PC-12. The test is described as follows: Protection against 6-OHDA-induced apoptosis in rat PC-12 cells assessed as early apoptotic cells at 5 uM pretreated for 12 hrs followed by 6-OHDA challenge by annexin V FITC/propidium iodide staining based flow cytometry (reference value: 2.4 %). The format is functional.
The subject of test [11] is PC-12. The test is described as follows: Protection against 6-OHDA-induced apoptosis in rat PC-12 cells assessed as necrotic cells at 5 uM pretreated for 12 hrs followed by 6-OHDA challenge by annexin V FITC/propidium iodide staining based flow cytometry (reference value: 3.7 %). The format is functional.
Test [12] relates to PC-12. The test is described as follows: Protection against 6-OHDA-induced apoptosis in rat PC-12 cells assessed as early apoptotic cells at 10 uM pretreated for 12 hrs followed by 6-OHDA challenge by annexin V FITC/propidium iodide staining based flow cytometry (reference value: 2.4 %). It is filed as functional.
Test [13] deals with PC-12. Kind of test: Protection against 6-OHDA-induced apoptosis in rat PC-12 cells assessed as late apoptotic cells at 10 uM pretreated for 12 hrs followed by 6-OHDA challenge by annexin V FITC/propidium iodide staining based flow cytometry (reference value: 17.3 %). It is filed as functional.
Test [14] relates to PC-12. The test is described as follows: Protection against 6-OHDA-induced apoptosis in rat PC-12 cells assessed as necrotic cells at 10 uM pretreated for 12 hrs followed by 6-OHDA challenge by annexin V FITC/propidium iodide staining based flow cytometry (reference value: 3.7 %). It is filed as functional.
Test [15] concerns PC-12. Kind of test: Cytoprotective activity against H2O2-induced oxidative stress in rat PC-12 cells assessed as decrease in cell death at 10 uM pretreated for 12 hrs followed by H2O2 challenge by MTT assay. The format is functional, cell-based.
Test [16] has as its system PC-12. Kind of test: Cytoprotective activity against 6-OHDA-induced oxidative stress in rat PC-12 cells assessed as decrease in cell death at 10 uM pretreated with brusatol for 1 hr followed by compound treatment for 12 hrs and subsequent 6-OHDA challenge by MTT assay. The format is functional, cell-based.
In test [17] the test system is PC-12. Kind of test: Activation of Keap1-Nrf2-ARE pathway in rat PC-12 assessed as upregulation of HO-1 protein expression at 10 uM measured after 6 to 24 hrs by Western blot analysis. The conditions noted are these: filed as activator, time 6-24 hrs.
Test [18] concerns PC-12. The test is described as follows: Activation of Keap1-Nrf2-ARE pathway in rat PC-12 assessed as induction of accumulation of Nrf2 in nucleus at 10 uM measured after 3 hrs by Western blot analysis. The conditions noted are these: filed as activator. (Immunoblotting shows a protein as a band on a membrane.)
Test [19] concerns PC-12. The test is described as follows: Activation of Keap1-Nrf2-ARE pathway in rat PC-12 assessed as accumulation of Nrf2 in cytosol at 10 uM measured up to 24 hrs by Western blot analysis. The format is subcellular. The conditions noted are these: filed as activator, time hrs <=24.
Test [20] has as its system PC-12. Kind of test: Cytoprotective activity against H2O2-induced cell damage in rat PC-12 cells transfected with Nrf2 siRNA at 10 uM. The format is functional, cell-based.
In test [21] the target is T1, Nuclear factor erythroid 2-related factor 2 (Mus musculus) (UniProt Q60795).
T1 sequence (whole entry): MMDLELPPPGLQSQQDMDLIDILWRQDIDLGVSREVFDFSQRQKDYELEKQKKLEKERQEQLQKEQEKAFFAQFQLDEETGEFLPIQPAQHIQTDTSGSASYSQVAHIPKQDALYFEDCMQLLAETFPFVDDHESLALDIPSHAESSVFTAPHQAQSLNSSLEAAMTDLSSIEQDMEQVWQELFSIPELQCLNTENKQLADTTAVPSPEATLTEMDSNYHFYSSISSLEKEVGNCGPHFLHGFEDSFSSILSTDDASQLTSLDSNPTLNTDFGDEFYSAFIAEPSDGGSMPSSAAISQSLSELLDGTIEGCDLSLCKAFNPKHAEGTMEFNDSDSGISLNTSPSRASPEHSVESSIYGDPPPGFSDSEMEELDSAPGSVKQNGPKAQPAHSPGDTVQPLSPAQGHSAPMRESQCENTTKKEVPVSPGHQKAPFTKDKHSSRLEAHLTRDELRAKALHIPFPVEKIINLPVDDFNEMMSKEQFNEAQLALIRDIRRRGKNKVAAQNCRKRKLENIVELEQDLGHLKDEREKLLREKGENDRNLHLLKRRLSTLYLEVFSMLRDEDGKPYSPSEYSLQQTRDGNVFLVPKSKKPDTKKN
Kind of test: Activation of Nrf2 in mouse BV-2 cells assessed as upregulation of GCLM protein expression after 24 hrs by Western blot analysis. It is filed as cell-based. The conditions noted are these: filed as activator, dose 2.5-10 µM.

Test [22] addresses T1, Nuclear factor erythroid 2-related factor 2 (Mus musculus). Kind of test: Activation of Nrf2 in mouse BV-2 cells assessed as upregulation of GCLC protein expression after 24 hrs by Western blot analysis. The conditions noted are these: filed as activator, dose 2.5-10 µM. The format is cell-based.
Test [23] concerns BV-2. Kind of test: Antiinflammatory activity in mouse BV-2 cells transfected with Nrf2 siRNA assessed as inhibition of LPS-induced NO production at 10 uM pretreated with compound for 2 hrs followed by LPS stimulation and further incubated for 18 hrs. The format is functional, cell-based. The conditions noted are these: time 20.0 hrs.

Calls of active or inactive are those of the source. The calls are words filed in the database; no cut-off is given here.

One molecule from ChEMBL document CHEMBL4811256, “Synthesis and evaluation of multi-target-directed ligands with BACE-1 inhibitory and Nrf2 agonist activities as potential agents against Alzheimer's disease” (Eur J Med Chem, 2021) can be followed below.

Consider `CN1C(N)=N[C@](C)(c2cc(-n3[se]c4cc(F)ccc4c3=O)ccc2F)CS1(=O)=O`, for which the result in test [1], in test [15], in test [17], in test [18] and in test [19] was Active. In addition, the Activity in test [2] worked out at 75.1%; in test [3], 85.9%; in [4] it was 89.1%; in test [5] it was 61.2%; in [6], 64.8%; in test [9], 3.3%. For the same molecule, the Activity in test [10] was 2.5%; in test [11] it was 2.3%; in test [12] it was 1.4%; in test [13], 6.7%; in [14], 1.4%; in test [21] it was “Dose-Dependent Effect”. In addition, in test [22], the Activity entry is “Dose-Dependent Effect”. Also, the viability at 5 µM in test [7] came to 89%. The viability at 2.5 µM in test [8] came to 79.8%. Moreover, the result in [16], in [20] and in test [23] was inactive.
